Experimental data published in PMC12040169 (PLOS Biology, 2025).

Assay: in vitro
Conditions: human, hela cells, % viability

Structure (SMILES) | viability at 28.5 h, 10 µM
CS(=O)(=O)N1CCC(C(=O)NNC(=S)Nc2cccc3ccccc23)CC1 [CBK266811] | 84.2%
S=C(NCCc1ccc(Cl)cc1)NCc1ccco1 [CBK266812] | 83.3%
NS(=O)(=O)c1ccc(NC(=O)C2CCCN(S(=O)(=O)c3ccc(Cl)cc3)C2)cc1 (stereo not drawn) [CBK266813] | 91.7%
Cc1ccc(C)c(S(=O)(=O)NC(Cc2c[nH]c3ccccc23)C(=O)O)c1 (stereo not drawn) [CBK266816] | 105%
O=C(NNC(=S)NCCc1ccccc1)c1ccc(Br)o1 [CBK266818] | 96.3%
COc1ccc(C(=O)Nc2ccc3c(c2)nc2n3CCN(Cc3ccccc3)C2)cc1 [CBK266820] | 82.5%
COc1cccc(/C=C\c2[nH]c(=O)[nH]c(=O)c2[N+](=O)[O-])c1OCC(=O)O [CBK266822] | 104%
O=C(CCSc1ccccc1)Nc1ccc(Br)cc1F [CBK266825] | 101%
CN1CCN(C(=S)c2ccc(OCC(=O)Nc3cccc(C(F)(F)F)c3)cc2)CC1 [CBK266826] | 92.2%
Cc1cc(=O)oc2cc(NC(=S)NNC(=O)c3ccc(Cl)s3)ccc12 [CBK266828] | 92.3%
COC(=O)c1ccccc1NC(=O)Nc1ccc(N2CCOCC2)c2nonc12 [CBK266830] | 90.6%
COc1ccc(NC(=O)Nc2nn(Cc3c(F)cccc3Cl)cc2Br)c(OC)c1 [CBK266834] | 83.8%
COc1ccc(OC)c(S(=O)(=O)N2CCC(C(=O)O)CC2)c1 [CBK266835] | 83.5%
O=C(CC1NCCNC1=O)Nc1ccc2c(c1)OCCO2 (stereo not drawn) [CBK266837] | 99.3%
COc1ccccc1N1CCN(CCNC(=O)Nc2cccc(C)c2C)CC1 [CBK266839] | 90.2%
CCN(CC)CCN1C(=O)c2oc3cc(C)c(C)cc3c(=O)c2C1c1cc(Br)c(O)c(OC)c1 (stereo not drawn) [CBK266846] | 105%
CC(=O)c1cccc(NC(=O)C2CCCN(S(=O)(=O)c3ccc(Cl)cc3)C2)c1 (stereo not drawn) [CBK266847] | 102%
CCOc1cc(-c2cc(C(=O)O)c3ccccc3n2)ccc1O [CBK266848] | 103%
CCNS(=O)(=O)c1ccc(NC(=O)Nc2cc(C)ccc2OC)cc1 [CBK266850] | 106%
O=C(CN1CCOCC1)NCCNc1c(Cl)c(Cl)c(Cl)c(Cl)c1Cl [CBK266851] | 84.7%
CCOc1cc(C(=S)N2CCN(C)CC2)ccc1OCC(=O)N1CCOCC1 [CBK266856] | 101%

Structure (SMILES) | viability at 28.5 h, 10 µM
O=C(NCCNC1CCC(c2ccccc2)CC1)c1ccc(F)cc1 (stereo not drawn) [CBK266857] | 88.2%
COc1ccccc1-c1nnc(Sc2nc([N+](=O)[O-])nn2C)o1 [CBK266858] | 85.1%
Cc1ccc(S(=O)(=O)N2C(=O)CCC2C(=O)O/N=C(\N)c2cccnc2)cc1 (stereo not drawn) [CBK266864] | 111%
CCN1CCCC1CNC(=O)C(=O)Nc1ccccc1OC (stereo not drawn) [CBK266865] | 103%
Cc1ccc(C(=O)NNC(=S)Nc2ccc(S(N)(=O)=O)cc2)cc1[N+](=O)[O-] [CBK266866] | 95.6%
C=CCn1c(SCC(=O)Nc2cc(Cl)ccc2C)nnc1-c1ccccc1O [CBK266867] | 94.5%
CCn1c2ccccc2n2c(SCC(=O)O)nnc12 [CBK266869] | 91.4%
O=C(NCCNCc1ccco1)c1ccc(F)cc1 [CBK266873G] | 103%
Cc1cccc(Cn2cnc(NC(=O)Nc3cccc(Cl)c3C)n2)c1 [CBK266876] | 89.5%
COC(=O)c1sc2cc(NC(=S)NNC(=O)c3ccoc3C)ccc2c1Cl [CBK266877] | 83.3%
O=S(=O)(c1ccc(Cl)cc1)N1CCN(S(=O)(=O)N2CCOCC2)CC1 [CBK266878] | 92.9%
CCN1CCN(C(=O)C2CCN(S(=O)(=O)c3ccc(Br)cc3)CC2)CC1 [CBK266881] | 103%
O=C(NNC(=O)c1cc2ccccc2cc1O)Nc1cccc([N+](=O)[O-])c1 [CBK266882] | 101%
COc1ccc(N(CC(=O)Nc2c(F)cccc2F)S(=O)(=O)c2ccccc2)cc1 [CBK266883] | 95.2%
O=C(Nc1ccc([N+](=O)[O-])cc1)Nc1ccc(N2CCOCC2)c2nonc12 [CBK266885] | 93.1%
COC(=O)c1ccccc1NC(=O)NCc1cc(C)n(C)n1 [CBK266887C] | 109%
O=c1c(-c2nncn2-c2ccccc2)coc2c(O)c(O)ccc12 [CBK266889] | 102%
Cc1ccc2nc(C)cc(C(=O)NNC(=O)Nc3ccc([N+](=O)[O-])cc3)c2c1 [CBK266890] | 98.8%
COc1ccc(NC(=S)N2CCN(C/C=C/c3ccccc3)CC2)cc1OC [CBK266891] | 88.7%
COC(=O)c1c(NC(=S)Nc2cnccn2)sc2c1CCC(C)C2 (stereo not drawn) [CBK266893] | 94.2%
Cc1ccc(C)c(S(=O)(=O)Nc2ccc(O)c(Sc3nnc[nH]3)c2)c1 [CBK266894] | 95.2%

Structure (SMILES) | viability at 28.5 h, 10 µM
S=C(NCc1ccco1)NCc1cn(-c2ccccc2)nc1-c1ccccc1 [CBK266895] | 112%
Cc1cccc(NC(=O)C(Cc2ccccc2)C(=O)Nc2cccc(C)c2)c1 [CBK266899] | 91.9%
O=C(COc1ccccc1)NC1C(=O)N2C(C(=O)O)=C(Cl)CSC12 (stereo not drawn) [CBK266903] | 92.7%
O=C(Cc1ccccc1[N+](=O)[O-])NNC(=S)Nc1ccc(F)c(Cl)c1 [CBK266904] | 101%
O=C(O)CCNS(=O)(=O)c1ccc2[nH]c(=O)[nH]c2c1 [CBK266906] | 91%
O=C(NNC(=O)C1CCN(S(=O)(=O)c2ccc(Br)cc2)CC1)NC12CC3CC(CC(C3)C1)C2 [CBK266907] | 94.5%
Cc1cc(F)ccc1S(=O)(=O)N(C(=O)c1ccncc1)c1ccc(OC(=O)c2ccncc2)cc1 [CBK266909] | 91.1%
CN(C)CCCNC(=S)NCc1ccc(Cl)cc1 [CBK266910] | 97.3%
CCC(C)c1ccc(OCC(=O)Nc2ccc3[nH]c(=O)[nH]c3c2)cc1 (stereo not drawn) [CBK266911] | 105%
S=C(NCCc1ccccc1)NCCn1cc(Cl)cn1 [CBK266912] | 103%
COc1ccc(Cl)cc1S(=O)(=O)N1CCN(Cc2ccc3c(c2)OCO3)CC1 [CBK266913] | 98.5%
S=C(NCCn1cc(Br)cn1)NCc1ccco1 [CBK266914] | 95.5%
O=C(CC(NC1CCCCC1)C(=O)O)Nc1cccc(Cl)c1 (stereo not drawn) [CBK266916] | 98.5%
NS(=O)(=O)c1ccc(NC(S)=Nc2ccc(S(=O)(=O)N3CCCC3)cc2)cc1 [CBK266918] | 80.3%
COc1ccc(Cl)cc1NC(=S)NNC(=O)c1cc(C)nc2ccccc12 [CBK266920] | 50.5%
CC(C)CNC(=S)NNC(=O)CC(C)O (stereo not drawn) [CBK266921] | 93.9%
COc1ccc(C(=O)CCC(=O)Nc2cccnc2)c(OC)c1 [CBK266923] | 105%
Cc1ccccc1NC(=O)CC(C(=O)O)N(C)C (stereo not drawn) [CBK266924] | 103%
COC(=O)c1c(NC(=S)NCc2ccc(S(N)(=O)=O)cc2)sc2c1CCC2 [CBK266926] | 88.5%
NS(=O)(=O)c1ccc(NC(=S)NNS(=O)(=O)c2ccc(Br)cc2)cc1 [CBK266928] | 111%
COc1ccc(NC(=O)Nc2nn(Cc3ccc(Cl)cc3Cl)cc2Br)cc1OC [CBK266930] | 101%
